Patent publication US8022055B2, “Betulinic acid derivatives” (Dabur Pharma Limited, priority 2005, dated 2011)

Assays:
NIH 3T3 cells = test: NIH3T3 cytotoxicity test (72 h MTT assay); assay type: cell-based; settings: NIH3T3, 72 hours
Protocol: The cytotoxic effect of chemicals upon NIH 3T3 cells in culture is measured by cell metabolism determination using the previously described MIT assay. Healthy NIH 3T3 cells (an established cell-line), when maintained in culture continuously divide and multiply over time. The basis of this test is that a cytotoxic chemical (regardless of site or mechanism of action) will interfere with this process and, thus, result in a reduction of the growth rate as reflected by cell number. The degree of inhibition of growth, related to the concentration of the test compound, provides an indication of toxicity.
The NIH 3T3 cells are maintained in culture and exposed to test compounds over a range of concentrations and the number of viable cells determined after 72 hours exposure by MIT assay. The number of cells in the presence of test chemicals are compared to that observed in control cultures and the percent inhibition of growth calculated. The IC50 concentration (i.e. the concentration producing 50% inhibition of growth) is determined and expressed as μg/ml. A ratio of IC50 of NIH 3T3 cells to tumor cells is an indicator of predicted toxicity of the molecule and is represented as “Safety Index”. The higher the value, the better is the predicted safety of the molecule.

PA1 = test: three day MTT cytotoxicity assay, PA1; assay type: cell-based, human; settings: PA1, 72 hours
Protocol: (§1) Briefly, a three day MTT cytotoxicity assay was performed, which is based on the principle of uptake of MTT (3-(4,5-dimethylthiazol-2-yl)-2,5-diphenyl tetrazolium bromide), a tetrazolium salt, by the metabolically active cells where it is metabolized by active mitochondria into a blue colored formazan product that is read spectrophotometrically. MIT was dissolved in phosphate buffered saline with a pH of 7.4 to obtain an MIT concentration of 5 mg/ml; the resulting mixture was filtered through a 0.22-micron filter to sterilize and remove a small amount of insoluble residue. For each type of tumor cell, 10,000 to 15,000 cells were seeded in a 96-well culture plate and incubated with the individual betulinic acid derivatives in a CO2 incubator for a total of 72 hours. Control cells not treated with the betulinic acid derivatives were similarly incubated. The assay was terminated by adding 100 μg (20 μl) of MIT to each well then incubating for additional one hour, and finally adding 50 μl of 10% SDS-0.01N HCl to each well to lyse the cells and dissolve formazan. After incubating for one hour, the plate was read spectrophotometrically at 540 nm and the percentage of cytotoxicity calculated using the following formula: Cytotoxicity percentage=100×[1−(X/R1)], where X=(absorbance of treated sample at 540 nm)−(absorbance of blank at 540 nm) R1=absorbance of control sample at 540 nm. The IC50 Values of the cytotoxicity defined as the concentration at which 50% of the cells are killed in vitro was calculated for each cell line treated with each of the betulinic acid derivatives.

DU145 = test: three day MTT cytotoxicity assay, DU145; assay type: cell-based, human; settings: DU145, 72 hours
Protocol: (§2) A number of compounds listed in Table-3 were tested for cytotoxicity against prostate, lung, laryngeal, pancreas, breast, colon and ovarian cancer, leukemia and lymphoma, human tumor cell lines. Briefly, a three day MTT cytotoxicity assay was performed, which is based on the principle of uptake of MTT (3-(4,5-dimethylthiazol-2-yl)-2,5-diphenyl tetrazolium bromide), a tetrazolium salt, by the metabolically active cells where it is metabolized by active mitochondria into a blue colored formazan product that is read spectrophotometrically. MIT was dissolved in phosphate buffered saline with a pH of 7.4 to obtain an MIT concentration of 5 mg/ml; the resulting mixture was filtered through a 0.22-micron filter to sterilize and remove a small amount of insoluble residue. For each type of tumor cell, 10,000 to 15,000 cells were seeded in a 96-well culture plate and incubated with the individual betulinic acid derivatives in a CO2 incubator for a total of 72 hours. Control cells not treated with the betulinic acid derivatives were similarly incubated. The assay was terminated by adding 100 μg (20 μl) of MIT to each well then incubating for additional one hour, and finally adding 50 μl of 10% SDS-0.01N HCl to each well to lyse the cells and dissolve formazan. After incubating for one hour, the plate was read spectrophotometrically at 540 nm and the percentage of cytotoxicity calculated using the following formula: Cytotoxicity percentage=100×[1−(X/R1)], where X=(absorbance of treated sample at 540 nm)−(absorbance of blank at 540 nm) R1=absorbance of control sample at 540 nm. The IC50 Values of the cytotoxicity defined as the concentration at which 50% of the cells are killed in vitro was calculated for each cell line treated with each of the betulinic acid derivatives.

SW620 = test: three day MTT cytotoxicity assay, SW620; assay type: cell-based, human; settings: SW620, 72 hours
Protocol: as §1

HBL100 = test: three day MTT cytotoxicity assay, HBL100; assay type: cell-based, human; settings: for IC50 for cell lines HBL100: HBL100, 72 hours, MTT; for Specific Index (SI) for cell lines HBL100: ratio of IC50 of NIH 3T3 cells to HBL100
Protocol: as §2

Miapaca = test: three day MTT cytotoxicity assay, Miapaca; assay type: cell-based, human; settings: for IC50 for cell lines Miapaca: 72 hours, MTT; for Specific Index (SI) for cell lines Miapaca: ratio of IC50 of NIH 3T3 cells to Miapaca
A549 = test: three day MTT cytotoxicity assay, A549; assay type: cell-based, human; settings: for IC50 for cell lines A549: A549, 72 hours, MTT; for Specific Index (SI) for cell lines A549: ratio of IC50 of NIH 3T3 cells to A549
Protocol: as §2

K562 = test: three day MTT cytotoxicity assay, K562; assay type: cell-based, human; settings: for IC50 for cell lines K562: K562, 72 hours, MTT; for Specific Index (SI) for cell lines K562: ratio of IC50 of NIH 3T3 cells to K562

Compound	IC50 for cell lines NIH3T3 (NIH 3T3 cells) [µg/mL]	IC50 for cell lines PA1 (PA1) [µg/mL]	IC50 for cell lines DU145 (DU145) [µg/mL]	IC50 for cell lines SW620 (SW620) [µg/mL]	IC50 for cell lines HBL100 (HBL100) [µg/mL]	IC50 for cell lines Miapaca (Miapaca) [µg/mL]	IC50 for cell lines A549 (A549) [µg/mL]	IC50 for cell lines K562 (K562) [µg/mL]	Specific Index (SI) for cell lines HBL100 (HBL100)	Specific Index (SI) for cell lines Miapaca (Miapaca)	Specific Index (SI) for cell lines A549 (A549)	Specific Index (SI) for cell lines K562 (K562)
1′-Benzyl-2,3-didehydro-20,29-dihydro-4′-phenylpyrrolo[2′,′:2,3]betulinic acid [Compound 13]	>20	>20	>20	>20	>20	>20						
28-O-Pivaloyoxymethyl-2,3-didehydroindolo[2′,3′:2,3]betulinate [Compound 17]	>20	>20	>20	>20	>20	>20	>20	>20				
C=C(C)[C@@H]1CC[C@]2(C(=O)O)CC[C@]3(C)[C@H](CC[C@@H]4[C@@]5(C)Cc6c([nH]c7ccccc67)C(C)(C)[C@@H]5CC[C@]43C)[C@@H]12 [Compound 1, 2,3-Didehydroindolo[2′,′:2,3]betulinic acid]	6.9 ± 0.76	6.01	8.86	5.151	10.3 ± 0.9	6.7 ± 0.59	7.6 ± 0.57	10.05 ± 0.61	0.669	1.029	0.907	0.68
CC(C)[C@@H]1CC[C@]2(C(=O)O)CC[C@]3(C)C(CCC4[C@@]5(C)Cc6c([nH]c7ccccc67)C(C)(C)C5CC[C@]43C)C12 (stereo partly drawn) [Compound 2, 2,3-Didehydro-20,29-dihydroindolo[2′,3′:2,3]betulinic acid]	>20	>20	>20	>20	>20	>20	>20	15.07 ± 2.15				
CC(C)[C@@H]1CC[C@]2(C(=O)O)CC[C@]3(C)[C@H](CC[C@@H]4[C@@]5(C)Cc6c([nH]c7ccc(Cl)cc67)C(C)(C)[C@@H]5CC[C@]43C)[C@@H]12 [Compound 6, 5′-Chloro-2,3-didehydro-20,29-dihydroindolo[2′,′:2,3]betulinic acid]	19.03 ± 0.21	6.6	6.5	5.9	>20	15.19 ± 1.06	8.8 ± 0.74	>20	<0.951	1.252	2.163	<0.952
CC(C)[C@@H]1CC[C@]2(C(=O)O)CC[C@]3(C)[C@H](CC[C@@H]4[C@@]5(C)Cc6c([nH]c7ccc(F)cc67)C(C)(C)[C@@H]5CC[C@]43C)[C@@H]12 [Compound 8, 2,3-Didehydro-5′-fluoro-20,29-dihydroindolo[2′,′:2,3]betulinic acid]	14.59 ± 0.33			7.28	>20	8.4 ± 0.76	8.89 ± 0.84	14.01 ± 0.75	<0.730	1.737	1.641	1.041
C=C(C)[C@@H]1CC[C@]2(C(=O)O)CC[C@]3(C)[C@H](CC[C@@H]4[C@@]5(C)Cc6c([nH]c7c(Cl)cccc67)C(C)(C)[C@@H]5CC[C@]43C)[C@@H]12 [Compound 9, 7′-Chloro-2,3-didehydroindolo[2′,′:2,3]betulinic acid]	11.8 ± 0.19	6.39	11.66	2.008	11.8 ± 0.35	11.6 ± 0.49	8.7 ± 0.19	9.26 ± 1.6	1	1.017	1.356	1.274
C=C(C)[C@@H]1CC[C@]2(C(=O)O)CC[C@]3(C)[C@H](CC[C@@H]4[C@@]5(C)Cc6c([nH]c7ccc(OC)cc67)C(C)(C)[C@@H]5CC[C@]43C)[C@@H]12 [Compound 10, 2,3-Didehydro-5′-methoxyindolo[2′,′:2,3]betulinic acid]	7.5 ± 0.48	5.8	5.75	8.4	12.8 ± 0.39	6.4 ± 0.44	8.2 ± 0.14	>20	0.586	1.172	0.915	<0.38
C=C(C)[C@@H]1CC[C@]2(C(=O)O)CC[C@]3(C)C(CCC4[C@@]5(C)Cc6c(oc7ccccc67)C(C)(C)C5CC[C@]43C)C12 (stereo partly drawn) [Compound 11, 2,3-Didehydrobenzfurano[2′,3′:2,3]betulinic acid]	19.03 ± 0.79	>20	>20	>20	>20	>20	>20	>20	<0.952	<0.952	<0.952	<0.952
C=C(C)[C@@H]1CC[C@]2(C(=O)OCc3ccccc3)CC[C@]3(C)C(CCC4[C@@]5(C)Cc6c([nH]c7ccccc67)C(C)(C)C5CC[C@]43C)C12 (stereo partly drawn) [Compound 15, 28-O-Benzyl-2,3-didehydro[2′,3′:2,3]indolobetulinate]	>20	>20	>20	>20	>20	>20	>20	>20				
CC(C)[C@@H]1CC[C@]2(C(=O)OCc3ccccc3)CC[C@]3(C)C(CCC4[C@@]5(C)Cc6c([nH]c7ccccc67)C(C)(C)C5CC[C@]43C)C12 (stereo partly drawn) [Compound 16, 28-O-Benzyl-2,3-didehydro-20,29-dihydro[2′,3′:2,3]indolobetulinate]	>20	>20	>20	>20	>20	>20	>20	>20				
